The test system of test [1] is S. molesta. Put plainly: Phytotoxic analysis by pipet application on upper or lower leaf surface. The format is in vivo, Salvinia molesta. As to conditions: for pest or weed control at 1 %: Salvinia molesta, topical, 72 h; for activity on upper or lower leaf surface applications: 1% solution, 72 hrs. On the procedure: General Experimental Procedure: 4-Hydroxybenzoic and 3,4-dihydroxybenzoic acids and 14 of their analogs were purchased commercially. Each of 16 compounds were prepared as 5 mL experimental solutions with NANOPURE™ water at 1% concentration. A total of 102 healthy and untreated living type III plants of S. molesta (approximately 10 g in fresh weight each) were cultured and tested in 17 plastic containers (23×23 cm, 2.37 L) with six plants in each container in a greenhouse (30° C. during the day time and 20° C. at night). The first container served as the controls without any treatment, the plants in each of the other 16 containers were treated by one of the 16 testing compounds, respectively. The plants in each container were randomly classified into two groups evenly. For each plant in the first group, 10 μL of 1% experimental solution was applied by pipet on the upper surface of each blade of the six pairs of large floating leaves close to the terminal bud. For each plant in the second group, 10 μL of 1% experimental solution was applied by pipet on the lower surface of each blade of the six pairs of large floating leaves close to the terminal bud. The leaf surfaces were examined for damage and analyzed 72 hrs after the treatments.

In test [2] the test system is Salvinia molesta. Put plainly: Greenhouse spray test on giant salvinia, living biomass. The format is in vivo. The note with it: 10 mL spray on three type III plants per container, day nine. On the procedure:
General Experimental Procedure: Observations of giant salvinia growth in a greenhouse were performed under 28 different treatment conditions and control conditions with NANOPURE™ water or 0.5% DYNE-AMIC® (methyl esters of C16-C18 fatty acids, polyalkyleneoxide modified polydimethylsiloxane, and alkylphenol ethoxylate 99%, (Helena, Collierville, Tenn., United States)) (v:v).
Materials—4-hydroxybenzoic acid (>95%, HPLC analysis) and 3,4-dihydroxybenzoic acid (>95%) were isolated from S. molesta matter using the method as described in (Li, Wang et al. 2013). Ethylparaben (>99%) was purchased from a commercial source. Each of 4-hydroxybenzoic acid, 3,4-dihydroxybenzoic acid, and ethylparaben were prepared as 50 mL experimental solutions with NANOPURE™ water at the concentration of 0.5, 1.0, 1.5, and 2.0%, respectively. 0.5, 1.0, 1.5, and 2.0% 4-hydroxybenzoic acid, 3,4-dihydroxybenzoic acid, and ethylparaben with 0.5% surfactant DYNE-AMIC® was also prepared as 50 mL experimental solutions with NANOPURE™ water. Mixtures of 4-hydroxybenzoic acid with 3,4-dihydroxybenzoic acid (2:1, w:w) were prepared as 50 mL experimental solutions with NANOPURE™ water at the total concentration of 0.5, 1.0, and 1.5%, respectively. 3,4-dihydroxybenzoic acid was mixed with ethylparaben (2:1, w:w) and prepared as 50 mL experimental solution with NANOPURE™ water at the total concentration of 0.5, 1.0, and 1.5%, respectively.
Bioassay—For each treatment, a total of nine healthy and untreated living plants of S. molesta (type III, the biomass of three plants weighs approximately 10 g) were cultured in tap water in three plastic containers severing as three replications (14×15 cm, 0.68 L) with three plants each in a greenhouse (30° C. during the day time and 20° C. at night). The three plants in each of the three containers per treatment were sprayed with 10 mL NANOPURE™ water, 0.5% DYNE-AMIC®, or the experimental solution. Plant growth and survival status were documented and photographed in each treatment on day nine after the treatment. Pairwise comparisons for all treatments (including Control) in living biomass were made using Tukey test at alpha=0.05, which was done using SAS (SAS 9.4).

Where [3] appears, read: 10 μL of 1% solution per blade, lower surface, read-out: Inhibition (%) Lower leaf Application.
Setting [4] is: 10 μL of 1% solution per blade, upper surface, read-out: Inhibition (%) Upper leaf Application.
The mark [5] stands for this setting: read-out: Inhibition (%) Lower leaf Application, 10 μL of 1% solution per blade, lower surface.
Setting [6] is: read-out: Inhibition (%) Upper leaf Application, 10 μL of 1% solution per blade, upper surface.

Each structure is given as a SMILES string. Like-named read-outs stand apart in the source and are kept apart here.

For the compound `O=C(O)c1ccc(O)c(O)c1O` [2,3,4-Trihydroxybenzoic acid], the figures for the pest or weed control at 1 % in test [1] (setting [3]) and in test [1] (setting [4]) were 11.1% and 44.5%, respectively.

For the compound `O=C(O)c1cccc(O)c1O` [2,3-Dihydroxybenzoic acid], the pest or weed control at 1 % is 100% in test [1] (setting [3]) and > 85% in test [1] (setting [4]).

On to `O=C(O)c1c(O)cc(O)cc1O` [2,4,6-Trihydroxybenzoic acid], for which the “activity on upper or lower leaf surface applications” value in test [1] is recorded as “did not show any activities”. The pest or weed control at 1 % in test [1] (setting [3]) amounted to 11.1%; in test [1] (setting [4]), 0%.

In the case of `O=C(O)c1ccc(O)cc1O` [2,4-Dihydroxybenzoic acid], the pest or weed control at 1 % is 72.2% in test [1] (setting [3]) and > 85% in test [1] (setting [4]).

Consider `O=C(O)c1cc(O)ccc1O` [2,5-Dihydroxybenzoic acid], for which the pest or weed control at 1 % in test [1] (setting [3]) was found to be 11.1%; in test [1] (setting [4]), 52.8%.

Take `O=C(O)c1c(O)cccc1O` [2,6-Dihydroxybenzoic acid]: the results for the pest or weed control at 1 % in test [1] (setting [3]) and in test [1] (setting [4]) were 25% and 44.4%, respectively.

On to `O=C(O)c1ccccc1O` [2-Hydroxybenzoic acid], for which the pest or weed control at 1 % in test [1] (setting [3]) is 100%; in test [1] (setting [4]) it was > 85%.

On to `O=C(O)c1cc(O)c(O)c(O)c1` [3,4,5-Trihydroxybenzoic acid], for which the “activity on upper or lower leaf surface applications” value in test [1] is on record as “did not show any activities”. Also, the pest or weed control at 1 % in test [1] (setting [3]) and in test [1] (setting [4]) was 0% throughout.

Take `O=C(O)c1cc(O)cc(O)c1` [3,5-Dihydroxybenzoic acid]: the “activity on upper or lower leaf surface applications” value in test [1] was “did not show any activities”. The pest or weed control at 1 % in test [1] (setting [3]) and in test [1] (setting [4]) was 0% throughout.

Consider `O=C(O)c1cccc(O)c1` [3-Hydroxybenzoic acid], for which the values for the pest or weed control at 1 % in test [1] (setting [3]) and in test [1] (setting [4]) were 66.7% and 36.1%, respectively.

In the case of `O=C(O)c1ccccc1` [Benzoic acid], the pest or weed control at 1 % is 100% in test [1] (setting [5]) and > 85% in test [1] (setting [6]).

Turning to `CCOC(=O)c1ccc(O)cc1` [Ethylparaben, reference compound], the “Living Biomass (mean ± s.d.)” value in test [2] (total concentration 0.5%) was 18.6 g; in test [2] (total concentration 1.0%), 18.7 g; in test [2] (total concentration 1.5%), 12.9 g; in test [2] (total concentration 2.0%) it was 13.5 g.

Regarding `O=C(O)c1ccncc1` [Isonicotinic acid], the pest or weed control at 1 % in test [1] (setting [3]) came to 33.3%; in test [1] (setting [4]), 44.5%.

As for `O=C(O)c1cccnc1` [Nicotinic acid], the “activity on upper or lower leaf surface applications” value in test [1] is listed as “did not show any activities”. In addition, the pest or weed control at 1 % in test [1] (setting [3]) and in test [1] (setting [4]) was 0% throughout.

Regarding `O=C(O)COc1ccccc1` [Phenoxyacetic acid], the pest or weed control at 1 % in test [1] (setting [5]) is 16.7%; in test [1] (setting [6]), 77.8%.

For the origin of these results see patent US11350582B2, “Plant varieties by application of endocides” (Stephen F. Austin State University, priority 2015, dated 2022).
